Measured values: patent US12441733B2, “Substituted 2,4-dioxotetrahydropyrimidines as intermediates in the synthesis of bruton's tyrosine kinase inhibitors” (Novartis AG, priority 2018, dated 2025)
Like-named read-outs stand apart in the source and are kept apart here.

Columns and labels:
Assay type in all cases: cell-based
BTK-GFP = molecular target: T1, BTK-GFP (Homo sapiens, UniProt Q06187+Q96SW2); experiment: BTK-GFP protein abundance flow cytometry assay in HEK293A cells; conditions: HEK293A BTK-GFP-iresRFP cells, 24 h; for DC50: GFP signal by flow cytometry, concentration at which 50% maximal degradation was observed; for BTK deg Amax: % protein remaining at the concentration at which maximum degradation is seen
T1 construct: expressed in transfected cells; host or cells: HEK293A (Invitrogen R70507), lentiviral transduction with pLenti6-BTK-GFP-Ires-RFP, blasticidin selection
Experimental: (§1) Compounds of the invention were tested in the following cellular assays. The terms in Table 2 are defined as follows: DC50 refers to the concentration at which 50% maximal degradation was observed; deg Amax is the extent of degradation and the value refers to the % protein remaining at the concentration at which maximum degradation is seen; ProI GI50 refers to the proliferation data and defines the concentration at which 50% growth inhibition was observed compared to the vehicle treated control at the end of the incubation time. TMD8 cells are BTK dependent and OCI-LY3 cells are BTK independent.
BTK-GFP and IKZF3-GFP protein abundance flow cytometry assay in HEK293A cells:
Degradation of BTK or IKZF3 was measured in HEK293A cells (Invitrogen R70507) expressing either BTK-GFP and RFP or IKZF3-GFP and RFP from a stably integrated bicistronic BTK-GFP-iresRFP or IKZF3-GFP-iresRFP construct, respectively. Reduction of the GFP signal measured by flow cytometry served as readout for BTK or IKZF3 degradation after degrader treatment.
i) Cloning of the pLenti6-BTK-GFP-1Res-RFP and IKZF3-GFP-Ires-RFP Sensor Vectors
The bicistronic BTK-GFP-iresRFP construct is based on a pLenti6-DEST vector backbone where GFP was introduced into the unique Xho1 site downstream of the destination cassette (DEST) and RFP was cloned behind an internal ribosomal entry site (Ires).
In detail, the sensor construct was engineered by replacing NanoLuciferase (NLuc) by GFP and FireFly luciferase (FF) by RFP from pLenti6-DEST-NLuc-Ires-FF.
The pLenti6-DEST-NLuc-Ires-FF sensor construct was cloned by replacing eGFP from pLenti6-DEST-ires-eGFP with a synthesized stuffer element (encoding Ires-FF with FF flanked by two Nhe1 restriction sites) using blunt end cloning replacing Ires-eGFP between the two PmII. To enable C-terminal tagging with NanoLuciferase (NLuc), NLuc was amplified from pNL1.1 (Promega #N1001) using linker primers with Xho1 sites for ligating into linearized pLenti6-DEST-Ires-FF using Xho1 digest resulting in the construct pLenti6-DEST-NLuc-Ires-FF.
The pLenti6-DEST-NLuc-Ires-FF served as base vector for cloning pLenti6-DEST-GFP-Ires-RFP using Gibson assembly to replace FF with RFP and NLuc with GFP. In a first round FF was replaced by RFP by amplifying RFP from a template using the following Gibson assembly linker primers (Gibson-Nhe1 RFPfw, […]gctagc[…] (SEQ ID NO: 1); Gibson-Nhe1 RFP-Stoprev, […]ctagc[…] (SEQ ID NO: 2)) to clone into pLenti6-DEST-NLuc-Ires-FF digested with Nhe1 and gel-purified to remove the FF fragment. The resulting pLenti6-DEST-NLuc-Ires-RFP vector served as the template to replace NLuc with GFP by amplifying GFP from a template using following Gibson assembly linker primers (Gibson-Xho1 GFPfw, […]c[…] (SEQ ID NO: 3); Gibson-Xho1 GFP-Stoprev, […] (SEQ ID NO: 4)) to clone into pLenti6-DEST-NLuc-Ires-RFP digested with Xho1 and gel-purified to remove the NLuc fragment. All Gibson assembly reactions were performed with Gibson assembly Master Mix (New England Biolabs NEB E261 IL) according to manufacturer's manual, resulting in the destination vector pLenti6-DEST-GFP-Ires-RFP to allow Gateway cloning. To enable gateway cloning and C-terminal GFP tagging of BTK, the BTK open reading frame (ORF) was first shuttled from a pcDNA-DEST40-BTK vector (Invitrogen library ID INV_20090504v1) into pDONR221 (Invitrogen 12536-017) vector using a gateway BP reaction according to the manufacturer's manual (Invitrogen 11789-013) resulting in the novel construct pENTR221-BTK. For C-terminal tagging the STOP codon was mutated to a leucine performing a mutagenesis reaction with the following primers (pENTR221-BTK Quikchange STOP-Leu fw, gtcatggatgaagaatccTTGaacccagctttcttgtac; pENTR221-BTK Quikchange STOP-Leu REVC, gtacaagaaagctgggttCAAggattcttcatccatgac) using the QuikChange Lightning mutagenesis kit (Agilent Technologies #210518) according to the manufacturer's manual, resulting in pENTR221-BTK (STOP-Leu). […]

TMD8 cells = experiment: Resazurin cell viability (proliferation) assay in TMD8 DLBCL cells; conditions: TMD8 cells (BTK dependent), 72 h, 50% growth inhibition vs vehicle, read-out: TMD8 Prol GI50
Experimental: as §1
(§2) Cell Viability Assay in DLBCL (Diffuse Large B-Cell Lymphoma) Cells:
(§3) The effect of the BTK compounds on cell proliferation was measured by a Resazurin (Sigma, #R7017) based cell viability assay. TMD8 (BTK compound sensitive) and OCI-LY3 (BTK compound insensitive) cells were incubated for 72 h at 37° C. and 5% CO2 with the corresponding compound, Resazurin is a non-toxic, cell-permeable substrate that is virtually non-fluorescent. Upon entering living cells, Resazurin (Sigma, #R7017) is reduced to highly fluorescent Resorufin. The metabolic activity was assessed by measuring the fluorescence signal (ex. 530 nm; em. 600 nm).
(§4) TMD8 and OCI-Ly3 cells were seeded at day 0 in triplicates at a cell density of 1×10^4 cells per 150 μl/well in a 96-well plate (Costar #3904). Additional plates were prepared, in order to assess the basal metabolic activity of both cell lines at the beginning of the experiment. For these reference plates, Resazurin (Sigma, #R7017) was added to a final concentration of 13 μg/ml 3 h post seeding and was incubated for 2 h at 37° C. and 5% CO2. Following incubation, the fluorescent signal intensity of the 96-well plates was measured on a Mithras LB940 multimode plate reader at 530/600 nm (Berthold Technologies, Germanyl).
(§5) In parallel, 3 h post-seeding, test-plates were treated with compound at various concentrations, or with vehicle (DMSO) alone for 3 days. The compound addition to the plates was performed by using a HP D300 digital dispenser (TECAN, Switzerland). The compounds were tested in triplicate, 8-point serial dilution (1:4), with a start concentration of 10 μM for OCI-LY3 and 1 μM for the TMD8 cells, respectively. To assess the relative proliferation of the cells, Resazurin was added to each well directly to the medium to a final concentration of 13 μg/ml. The plates were incubated for 2 h at 37° C. and 5% CO2 to result in a 72 h endpoint. Following incubation, the fluorescent signal intensity of the 96-well plates were measured on a Mithras LB940 multimode plate reader at 530/600 nm (Berthold Technologies, Germanyl). The formation of Resorufin dye directly correlates with the number of metabolically active cells. For each triplicate treatment the mean and standard deviation were calculated and analyzed via curve fitting software to determine the respective compound concentration resulting in 50% growth inhibition (GI50) values. For each compound GI50 values were typically determined from at least 2 entirely independent experiments.
TMD8 cells were acquired through a license agreement with Tokyo Medical and Dental University, Japan. Cells are cultivated in MEM Alpha (BioConcept, #1-23F01-1, lot. LB04262P) supplemented with 10% FCS (HyClone, GE #SH30066.03, lot AB3217603), 2 mM L-Glutamine (BioConcept, #5-10K50-H, lot. LA03467P), 1% Pen/Strep (BioConcept, #4-01F00-H, lot. LB04235P).

OCI-LY3 cells = experiment: Resazurin cell viability (proliferation) assay in OCI-LY3 DLBCL cells; conditions: OCI-LY3 cells (BTK independent), 72 h, 50% growth inhibition vs vehicle, read-out: OCI-LY3 Prol GI50
Experimental: as §1, §2, §3, §4, §5
OCI-LY3 cells were acquired through a license agreement with University Health Network, Toronto, Canada. Cells are cultivated in RPM11640 media (Gibco, #61870-010, lot. 1894759), supplemented with 10% FCS (HyClone, GE #SH30066.03, lot AB217603), 2 mM L-Glutamine (BioConcept, #5-10K50-H, lot. LA03467P), 1 mM Sodium Pyruvate (BioConcept, #5-60F00-H, lot. LB10510P), 10 mM HEPES (Gibco, #15630-056, lot. 1854074), 1% Pen/Strep (BioConcept, #4-01F00-H, lot. LB04235P).

T1 sequence (Q06187 whole entry): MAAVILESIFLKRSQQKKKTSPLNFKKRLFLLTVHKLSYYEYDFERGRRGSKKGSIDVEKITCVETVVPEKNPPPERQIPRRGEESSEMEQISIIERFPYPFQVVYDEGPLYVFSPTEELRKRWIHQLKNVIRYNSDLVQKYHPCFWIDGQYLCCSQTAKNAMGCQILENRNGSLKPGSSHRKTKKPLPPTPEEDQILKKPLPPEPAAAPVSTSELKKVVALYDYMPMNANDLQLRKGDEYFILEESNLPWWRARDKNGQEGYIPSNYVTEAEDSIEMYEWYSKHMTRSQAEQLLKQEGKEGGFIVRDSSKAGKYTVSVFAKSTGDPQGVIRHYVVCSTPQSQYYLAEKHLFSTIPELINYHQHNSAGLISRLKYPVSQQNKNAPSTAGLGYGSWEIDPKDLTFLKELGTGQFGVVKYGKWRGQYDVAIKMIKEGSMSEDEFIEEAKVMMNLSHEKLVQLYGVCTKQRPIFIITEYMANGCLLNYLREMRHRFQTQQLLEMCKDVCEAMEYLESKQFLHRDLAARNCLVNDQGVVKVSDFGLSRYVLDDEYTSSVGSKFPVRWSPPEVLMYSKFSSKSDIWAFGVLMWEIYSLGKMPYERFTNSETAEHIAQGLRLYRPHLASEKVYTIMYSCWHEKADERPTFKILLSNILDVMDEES
T1 sequence (Q96SW2 whole entry): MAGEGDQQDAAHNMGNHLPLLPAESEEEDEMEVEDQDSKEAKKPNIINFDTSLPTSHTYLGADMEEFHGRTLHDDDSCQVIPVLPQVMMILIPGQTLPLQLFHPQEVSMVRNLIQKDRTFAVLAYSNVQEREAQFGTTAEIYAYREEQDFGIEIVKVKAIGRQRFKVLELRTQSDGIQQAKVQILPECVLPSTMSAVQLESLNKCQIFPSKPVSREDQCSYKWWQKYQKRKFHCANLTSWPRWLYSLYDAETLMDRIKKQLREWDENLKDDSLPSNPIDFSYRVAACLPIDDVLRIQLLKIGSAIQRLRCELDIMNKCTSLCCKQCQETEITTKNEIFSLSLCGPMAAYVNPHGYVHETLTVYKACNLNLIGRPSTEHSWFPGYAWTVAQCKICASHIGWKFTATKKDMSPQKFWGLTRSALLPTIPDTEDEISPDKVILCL
T1 sequence (Q16531 whole entry partner): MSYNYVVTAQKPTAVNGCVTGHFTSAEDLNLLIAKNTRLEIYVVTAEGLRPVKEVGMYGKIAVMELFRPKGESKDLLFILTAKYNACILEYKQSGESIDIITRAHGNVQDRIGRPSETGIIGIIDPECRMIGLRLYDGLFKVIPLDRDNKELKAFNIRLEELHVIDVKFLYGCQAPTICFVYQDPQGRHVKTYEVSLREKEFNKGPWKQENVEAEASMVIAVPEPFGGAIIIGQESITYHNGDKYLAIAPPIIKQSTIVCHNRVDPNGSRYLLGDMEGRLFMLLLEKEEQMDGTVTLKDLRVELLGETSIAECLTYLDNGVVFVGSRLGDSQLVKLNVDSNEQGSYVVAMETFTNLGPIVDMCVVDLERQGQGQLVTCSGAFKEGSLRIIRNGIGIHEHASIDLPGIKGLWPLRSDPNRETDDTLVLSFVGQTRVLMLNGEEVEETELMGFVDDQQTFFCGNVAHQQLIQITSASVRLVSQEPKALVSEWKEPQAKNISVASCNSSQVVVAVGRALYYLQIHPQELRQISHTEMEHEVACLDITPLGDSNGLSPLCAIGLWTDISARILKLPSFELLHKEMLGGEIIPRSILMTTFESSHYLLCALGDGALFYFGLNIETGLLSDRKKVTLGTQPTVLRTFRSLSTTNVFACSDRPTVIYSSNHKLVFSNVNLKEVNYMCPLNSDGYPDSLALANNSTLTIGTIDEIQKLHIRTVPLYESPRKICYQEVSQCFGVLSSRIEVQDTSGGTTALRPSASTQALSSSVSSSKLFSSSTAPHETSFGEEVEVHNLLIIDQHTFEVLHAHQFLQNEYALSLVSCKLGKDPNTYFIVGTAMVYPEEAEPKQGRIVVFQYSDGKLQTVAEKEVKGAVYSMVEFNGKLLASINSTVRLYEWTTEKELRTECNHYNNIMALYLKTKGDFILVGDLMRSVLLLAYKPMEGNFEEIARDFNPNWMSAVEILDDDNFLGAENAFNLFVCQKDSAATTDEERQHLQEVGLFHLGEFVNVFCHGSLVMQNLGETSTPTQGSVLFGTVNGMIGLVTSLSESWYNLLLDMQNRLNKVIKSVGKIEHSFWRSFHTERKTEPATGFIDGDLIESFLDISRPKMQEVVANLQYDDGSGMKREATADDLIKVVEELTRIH

DC50 (BTK-GFP) [nM] | BTK deg Amax (BTK-GFP) [%] | GI50 (OCI-LY3 cells; Homo sapiens) [nM] | SMILES | GI50 (TMD8 cells; Homo sapiens) [nM] | GI50 (TMD8 cells) [nM] | GI50 (OCI-LY3 cells) [nM]
11.3 | 6.5 | 4220 | Cc1c(NC(=O)c2ccc(C(C)(C)O)cc2F)cc(F)cc1-c1ncnc2[nH]c(-c3ccc(CN4CCC5(CC4)CN(CCNC(=O)c4ccc(Cl)c(N6CCC(=O)NC6=O)c4)CCO5)cc3)cc12 [Compound 37, N-(3-(6-(4-((4-(2-(4-chloro-3-(2,4-dioxotetrahydropyrimidin-1(2H)-yl)benzamido)ethyl)-1-oxa-4,9-diazaspiro[5.5]undecan-9-yl)methyl)phenyl)-7H-pyrrolo[2,3-d]pyrimidin-4-yl)-5-fluoro-2-methylphenyl)-2-fluoro-4-(2-hydroxypropan-2-yl)benzamide] | 1.93 | – | –
> 124 | 53.8 | 7940 | COc1ccc(C(=O)N2CCC3(CCN(Cc4ccc(-c5cc6c(-c7cc(F)cc(NC(=O)c8ccc(C(C)(C)O)cc8F)c7C)ncnc6[nH]5)cc4)CC3)C2)cc1N1CCC(=O)NC1=O [Compound 55, N-(3-(6-(4-((2-(3-(2,4-dioxotetrahydropyrimidin-1(2H)-yl)-4-methoxybenzoyl)-2,8-diazaspiro[4.5]decan-8-yl)methyl)phenyl)-7H-pyrrolo[2,3-d]pyrimidin-4-yl)-5-fluoro-2-methylphenyl)-2-fluoro-4-(2-hydroxypropan-2-yl)benzamide] | 7.01 | – | –
0.7 | 2.3 | 5940 | Cc1ccc(C(=O)N2CCC(OC3CCN(CCc4ccc(-c5cc6c(-c7cc(F)cc(NC(=O)c8ccc(C(C)(C)O)cc8F)c7C)ncnc6[nH]5)cc4)CC3)CC2)cc1N1CCC(=O)NC1=O [Compound 10, N-(3-(6-(4-(2-(4-((1-(3-(2,4-Dioxotetrahydropyrimidin-1(2H)-yl)-4-methylbenzoyl)piperidin-4-yl)oxyl)piperidin-1-yl)ethyl)phenyl)-7H-pyrrolo[2,3-d]pyrimidin-4-yl)-5-fluoro-2-methylphenyl)-2-fluoro-4-(2-hydroxypropan-2-yl)benzamide] | 0.36 | – | –
78.4 | 7.2 | > 10000 | COc1ccc(C(=O)N2CCC3(CCN(Cc4ccc(-c5cc6c(-c7cc(F)cc(NC(=O)c8ccc(C(C)(C)O)cc8F)c7C)ncnc6[nH]5)cc4)C[C@H]3CO)CC2)cc1N1CCC(=O)NC1=O (single isomer, unassigned) [Compound 25] | 11.4 | – | –
38.5 | 4.6 | > 10000 | COc1ccc(C(=O)N2CCC3(CCN(Cc4ccc(-c5cc6c(-c7cc(F)cc(NC(=O)c8ccc(C(C)(C)O)cc8F)c7C)ncnc6[nH]5)cc4)CC3)[C@@H](CO)C2)cc1N1CCC(=O)NC1=O (single isomer, unassigned) [Compound 2] | 3.57 | – | –
5 | 4.7 | > 10000 | COc1ccc(C(=O)N2CCC3(CCN(CCCc4ccc(-c5cc6c(-c7cc(F)cc(NC(=O)c8ccc(C(C)(C)O)cc8F)c7C)ncnc6[nH]5)cc4)CC3)CC2)cc1N1CCC(=O)NC1=O [Compound 11, N-(3-(6-(4-(3-(9(3-(2,4-Dioxotetrahydropyrimidin-1(2H)-yl)-4-methoxybenzoyl)-3,9-diazaspiro[5.5]undecan-3-yl)propyl)phenyl)-7H-pyrrolo[2,3-d]pyrimidin-4-yl)-5-fluoro-2-methylphenyl)-2-fluoro-4-(2-hydroxypropan-2-yl)benzamide] | 0.84 | – | –

SMILES | DC50 (BTK-GFP) [nM] | BTK deg Amax (BTK-GFP) [%] | GI50 (OCI-LY3 cells; Homo sapiens) [nM] | GI50 (TMD8 cells; Homo sapiens) [nM] | GI50 (TMD8 cells) [nM] | GI50 (OCI-LY3 cells) [nM]
COc1ccc(C(=O)N2CCC(O[C@H]3CC[C@H](Oc4ccc(-c5cc6c(-c7cc(F)cc(NC(=O)c8ccc(C(C)(C)O)cc8F)c7C)ncnc6[nH]5)cc4)CC3)CC2)cc1N1CCC(=O)NC1=O [Compound 46, N-(3-(6-(4-(((1r,4r)-4-((1-(3-(2,4-dioxotetrahydropyrimidin-1(2H)-yl)-4-methoxybenzoyl)piperidin-4-yl)oxy)cyclohexyl)oxy)phenyl)-7H-pyrrolo[2,3-d]pyrimidin-4-yl)-5-fluoro-2-methylphenyl)-2-fluoro-4-(2-hydroxypropan-2-yl)benzamide] | 1.7 | 3.6 | – | – | 3.59 | > 10000
